6 molecules from PMC8305076, “Comprehensive Evaluation of Biological Effects of Pentathiepins on Various Human Cancer Cell Lines and Insights into Their Mode of Action” (International Journal of Molecular Sciences, 2021) can be followed below.

Common to all, as to assay type: cell-based, human
One assay has as its system PATU-8902. Description: cell cycle analysis (PI staining). Conditions: IC90, 24 and 48 h (Figure 19b). On the procedure: (§1) The potent cytotoxicity and the potential to inhibit the proliferation of cancer cells accompanied by DNA damage effects raised the question as to whether cell cycle progression might be affected as a result of treatment with pentathiepins.
(§2) Cells were harvested by trypsinization, collected in 1.5 mL tubes, and washed twice with PBS by centrifuging for 5 min at 500× g and discarding the supernatant after every step. For fixation, 500 µL of ice-cold ethanol (70%) was added dropwise under vortexing with a subsequent incubation on ice for 30 min. Then, the cells were centrifuged for 10 min at 4000 rpm and 4 °C, the supernatant was removed, and the cells were resuspended in 500 µL of PBS containing 25 µg/mL of PI and 100 µg/mL of RNase. The staining solution was incubated for 30 min, and the cell suspension was measured at λEx/Em = 488/655–730 nm using a MACSquant Analyzer 10 (Miltenyi Biotec, Teterow, Germany).

Another assay relates to HAP-1.KO.GPx1. Put plainly: annexin V-FITC/PI apoptosis assay. Conditions: for early apoptotic cells: pentathiepins IC90, doxorubicin 0.5 µM, 24 h. On the procedure: (§3) As reported in our earlier publication, a representative pentathiepin was capable of inducing apoptosis in cancer cell lines. Here, we tested compounds 1–6 for their ability to trigger this particular modality of cell death in a subset of four cell lines: HAP-1, HAP-1.KO.GPx1, A2780, and Siso. A flow cytometric assay was performed, allowing us to discriminate between viable, early, and late apoptotic cells (representative dot plots can be found in Figure S47). FITC-labeled annexin V was used to assess the externalization of phosphatidyl serine as a hallmark of early apoptosis induction. The addition of propidium iodide (PI) enabled the detection of late apoptotic cells as it only permeates porous cell membranes and exerts fluorescence once bound to double-stranded DNA.
(§4) The annexin V-FITC/PI assay, which discriminates between viable, early, and late apoptotic cells within a sample population, was performed according to the manufacturer’s instructions (Miltenyi Biotec, Teterow, Germany). Briefly, 125,000 cells were seeded in 2 mL per well of a 6-well plate, allowed to adhere overnight, and subsequently treated with the respective pentathiepin (IC90, see Table S4) diluted in 3 mL of medium. After incubation periods of 6, 24, or 48 h, the cells were harvested, washed with the provided binding buffer, and stained with the annexin V-FITC reagent for 20 min at room temperature (RT) in the dark. After another washing step, the pellet was resuspended, and PI was added immediately before flow cytometric measurement at λEx/Em = 488/525 ± 50 nm for FITC and λEx/Em = 488/655–730 nm for PI with the MACSquant Analyzer 10 (Miltenyi Biotec, Teterow, Germany).

The subject of the next assay is YAPC. Description: cell cycle analysis (PI staining). As to conditions: IC90, 24 and 48 h (Figure 19c). On the procedure:
as §1, §2

The subject of assay [1] is Siso. Put plainly: annexin V-FITC/PI apoptosis assay. Conditions: IC90, 24 h. On the procedure: as §3, §4
The test system of another assay is HAP-1. Description: annexin V-FITC/PI apoptosis assay. As to conditions: IC90, 24 h. On the procedure: as §3, §4
Assay [2] relates to Siso. Description: alkaline Comet assay. As to conditions: 25 µM pentathiepin or 20 µM H2O2, 15 min, 0 °C. From the text:
Next, the potential of the pentathiepins 1–6 to damage nuclear DNA was investigated in the cell lines HAP-1, HAP-1.KO.GPx1, and Siso, with different expression levels of GPx1 and CAT (see Figure 7), by Comet Assay (Figure 12) with representative images in the Supplementary Materials (Figure S48).
With this assay, the intensity of DNA damage can be assessed on the level of a single cell, in case of the alkaline version detecting both single and double strand breaks as well as alkali-labile sites. The method presented here is an adaptation of the protocol published by Olive and Banath and based on the distinct electrophoretic mobility of damaged and intact genomic DNA. The latter has a low mobility; does thus not migrate in the electric field; and remains in a nucleoid shape after lysis, referred to as the comet head. In contrast, when strand breaks are created, free charged ends emerge and increase the electrophoretic mobility, prompting DNA segments to drift away from the comet head, thereby forming the so-called comet tail. As descriptor of still intact genomic DNA, the percentage of DNA in the comet head was selected. Per condition, 50,000 cells of either Siso, HAP-1, or HAP-1.KO.GPx1 were diluted in 1 mL of PBS and subsequently treated with either a 1% DMF aqueous solution as negative control, 20 µM of H2O2 as positive control, or 25 µM of pentathiepin for 15 min on ice to impair intracellular DNA repair mechanisms. Afterwards, 400 µL of the cell suspension was blended with 1.2 mL of a 1% low melting point agarose solution (40 °C) and smoothly distributed on agarose-precoated glass slides. Polymerization was finished after 3 min at RT, and the slides were horizontally submerged in alkaline lysis buffer (1.2 M NaCl, 0.1% N-lauryl-sarcosinate, 0.1 M Na-EDTA, 0.26 M NaOH) before storing them at 4 °C overnight. The slides were then rinsed three times in rinse/electrophoresis buffer (0.002 M Na-EDTA, 0.03 M NaOH) before electrophoretic separation was performed for 25 min at 0.6 V/cm. A neutralization step by adding distilled water was followed by staining the slides with 250 µL of an aqueous 10 µg/mL PI solution for 20 min. For visualization and image capturing, a DMi8 fluorescent microscope and LASX software (Leica Microsystems, Wetzlar, Germany) were used, and the comets scored with the help of CometScore2.0 (rexhoover.com). Per condition and replicate, at least 100 comets were analyzed to calculate a mean level of damage.

For the molecule `CCOc1c2c(c3ccc(C(=O)N(CC)CC)cn13)SSSSS2` [Compound 4, 6-Ethoxy-N,N’-diethyl-[1,2,3,4,5]pentathiepino[6,7-a]indolizine-9-carboxamide], in the assay on PATU-8902, the “increase of S-phase cells” value is “up to 14%”.

`CCOc1c2c(c3ccc(C(=O)N4CCN(C(=O)c5ccc(F)cc5)CC4)cn13)SSSSS2` [Compound 5, (6-Ethoxy-[1,2,3,4,5]pentathiepino[6,7-a]indolizin-9-yl)(4-(4-fluorobenzoyl)piperazinyl)methanone] registered an early apoptotic cells in the assay with HAP-1.KO.GPx1 of 15%.

Turning to `CCOc1c2c(c3cnc4[nH]c(-c5ccc(OC)cc5)cc4n13)SSSSS2` [Compound 1, 11-Ethoxy-2-(4-methoxyphenyl)-3H-[1,2,3,4,5]pentathiepino[6′,7′:3,4]pyrrolo[1,2-a]pyrrolo[2,3-e]pyrazine], the “increase of G0/G1-phase cells” value in the assay on YAPC is listed as “up to 18%”.

Take `CCOc1c2c(c3ccc(C(=O)N4CCOCC4)cn13)SSSSS2` [Compound 3, (6-Ethoxy-[1,2,3,4,5]pentathiepino[6,7-a]indolizin-9-yl)(morpholino)methanone]: the “increase of S-phase cells” value with PATU-8902 is “up to 14%”. The early apoptotic cells entry with Siso [1] was “about 20%”; in the assay on HAP-1.KO.GPx1 it was 34%. Besides, the late apoptotic cells entry was “about 20%” in the assay with Siso [1]; 6% in the assay on HAP-1.KO.GPx1 (IC90, 24 h); “up to 12%” with HAP-1.

Consider `CCOc1c2c(c3ccc(C(=O)N4CCN(S(=O)(=O)c5ccc(C)cc5)CC4)cn13)SSSSS2` [Compound 6, (6-Ethoxy-[1,2,3,4,5]pentathiepino[6,7-a]indolizin-9-yl)(4-tosylpiperazinyl)methanone], for which the “increase of G0/G1-phase cells” value with YAPC was “up to 18%”.

As for `CCOc1c2c(c3ccc(C(=O)N4CCCCC4)cn13)SSSSS2` [Compound 2, (6-Ethoxy-[1,2,3,4,5]pentathiepino[6,7-a]indolizin-9-yl)(piperidinyl)methanone], the “intact genomic DNA (Comet head)” value in the assay with Siso [2] is 30%.
